Assay results as given in PubChem BioAssay AID272 (DTP/NCI, 2004).
Where “and” joins values, the source holds several entries; their conditions need not be identical. Equal entries are not always repeated. Records with an inconclusive call do not appear.

Tested on: Lewis lung carcinoma i.m., BDF1 mice, T/C %
Assay: NCI In Vivo Anticancer Drug Screen. Data for tumor model Lewis Lung Carcinoma (intramuscular) in B6D2F1 (BDF1) mice
Method in brief: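 Mice carrying transplantable tumours received test compound. Survival or tumour size was recorded and expressed as the treated-group value (T) divided by the vehicle-treated control-group value (C).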

COC1N(C2CC(O)C(CO)O2)C(=O)NC(=O)C1(F)Br (centres undefined)
T/C (endpoint: mean tumor weight (est.), dose: 5.0 mg/kg/injection, schedule: Q01DX011 (ip), vehicle: saline, higher = larger tumour): 87 % of control
T/C (endpoint: mean tumor weight (est.), dose: 10.0 mg/kg/injection, schedule: Q01DX011 (ip), vehicle: saline, higher = larger tumour): 29 % of control
T/C (endpoint: mean tumor weight (est.), dose: 20.0 mg/kg/injection, schedule: Q01DX011 (ip), vehicle: saline, higher = larger tumour): 7 % of control
T/C (endpoint: median survival time, dose: 5.0 mg/kg/injection, schedule: Q01DX011 (ip), vehicle: saline, higher = longer survival): 103 % of control

COc1ccc(OC)c(/C=C/c2ccnc3ccccc23)c1
T/C (endpoint: mean tumor weight (est.), dose: 50.0 mg/kg/injection, schedule: Q01DX011 (ip), vehicle: saline with Tween-80, higher = larger tumour): 84 % of control
T/C (endpoint: mean tumor weight (est.), dose: 100.0 mg/kg/injection, schedule: Q01DX011 (ip), vehicle: saline with Tween-80, higher = larger tumour): 75 % of control
T/C (endpoint: mean tumor weight (est.), dose: 400.0 mg/kg/injection, schedule: Q01DX011 (ip), vehicle: saline with Tween-80, higher = larger tumour): 77 % of control
T/C (endpoint: median survival time, dose: 50.0 mg/kg/injection, schedule: Q01DX011 (ip), vehicle: saline with Tween-80, higher = longer survival): 100 % of control
T/C (endpoint: median survival time, dose: 100.0 mg/kg/injection, schedule: Q01DX011 (ip), vehicle: saline with Tween-80, higher = longer survival): 102 % of control

CN(C)/N=N/c1nc[nH]c1C(N)=O
T/C (endpoint: mean tumor weight, dose: 50.0 mg/kg/injection, schedule: Q01DX011 (ip), vehicle: steriod suspending solution, higher = larger tumour): 63 % of control
T/C (endpoint: mean tumor weight, dose: 100.0 mg/kg/injection, schedule: Q01DX011 (ip), vehicle: steriod suspending solution, higher = larger tumour): 62 % of control
T/C (endpoint: mean tumor weight, dose: 200.0 mg/kg/injection, schedule: Q01DX011 (ip), vehicle: steriod suspending solution, higher = larger tumour): 44 % of control
T/C (endpoint: median survival time, dose: 23.0 mg/kg/injection, schedule: Q01DX011 (ip), vehicle: Klucel (hydroxypropylcellulose) (HPC), higher = longer survival): 112 % of control and 115 % of control
T/C (endpoint: median survival time, dose: 25.0 mg/kg/injection, schedule: Q01DX009 (ip), vehicle: Klucel (hydroxypropylcellulose) (HPC), higher = longer survival): 101 % of control
T/C (endpoint: median survival time, dose: 39.0 mg/kg/injection, schedule: Q01DX010 (ip), vehicle: Klucel (hydroxypropylcellulose) (HPC), higher = longer survival): 102 % of control and 104 % of control
T/C (endpoint: median survival time, dose: 39.0 mg/kg/injection, schedule: Q01DX011 (ip), vehicle: Klucel (hydroxypropylcellulose) (HPC), higher = longer survival): 108 % of control and 116 % of control
T/C (endpoint: median survival time, dose: 50.0 mg/kg/injection, schedule: Q01DX009 (ip), vehicle: Klucel (hydroxypropylcellulose) (HPC), higher = longer survival): 120 % of control
T/C (endpoint: median survival time, dose: 50.0 mg/kg/injection, schedule: Q01DX011 (ip), vehicle: steriod suspending solution, higher = longer survival): 105 % of control
T/C (endpoint: median survival time, dose: 65.0 mg/kg/injection, schedule: Q01DX010 (ip), vehicle: Klucel (hydroxypropylcellulose) (HPC), higher = longer survival): 112 % of control and 117 % of control
T/C (endpoint: median survival time, dose: 65.0 mg/kg/injection, schedule: Q01DX011 (ip), vehicle: Klucel (hydroxypropylcellulose) (HPC), higher = longer survival): 88 % of control and 93 % of control
T/C (endpoint: median survival time, dose: 100.0 mg/kg/injection, schedule: Q01DX009 (ip), vehicle: Klucel (hydroxypropylcellulose) (HPC), higher = longer survival): 123 % of control
T/C (endpoint: median survival time, dose: 100.0 mg/kg/injection, schedule: Q01DX011 (ip), vehicle: steriod suspending solution, higher = longer survival): 97 % of control
T/C (endpoint: median survival time, dose: 108.0 mg/kg/injection, schedule: Q01DX010 (ip), vehicle: Klucel (hydroxypropylcellulose) (HPC), higher = longer survival): 88 % of control and 93 % of control
T/C (endpoint: median survival time, dose: 108.0 mg/kg/injection, schedule: Q01DX011 (ip), vehicle: Klucel (hydroxypropylcellulose) (HPC), higher = longer survival): 75 % of control
T/C (endpoint: median survival time, dose: 180.0 mg/kg/injection, schedule: Q01DX010 (ip), vehicle: Klucel (hydroxypropylcellulose) (HPC), higher = longer survival): 79 % of control
T/C (endpoint: median survival time, dose: 180.0 mg/kg/injection, schedule: Q01DX011 (ip), vehicle: Klucel (hydroxypropylcellulose) (HPC), higher = longer survival): 63 % of control
T/C (endpoint: median survival time, dose: 200.0 mg/kg/injection, schedule: Q01DX011 (ip), vehicle: steriod suspending solution, higher = longer survival): 97 % of control
T/C (endpoint: median survival time, dose: 300.0 mg/kg/injection, schedule: Q01DX010 (ip), vehicle: Klucel (hydroxypropylcellulose) (HPC), higher = longer survival): 58 % of control
T/C (endpoint: median survival time, dose: 300.0 mg/kg/injection, schedule: Q01DX011 (ip), vehicle: Klucel (hydroxypropylcellulose) (HPC), higher = longer survival): 55 % of control
T/C (endpoint: median survival time, dose: 500.0 mg/kg/injection, schedule: Q01DX010 (ip), vehicle: Klucel (hydroxypropylcellulose) (HPC), higher = longer survival): 57 % of control
T/C (endpoint: median survival time, dose: 500.0 mg/kg/injection, schedule: Q01DX011 (ip), vehicle: Klucel (hydroxypropylcellulose) (HPC), higher = longer survival): 51 % of control

Cc1cc(C)c(C(=O)CC(=O)c2cccnc2)c(C)c1
T/C (endpoint: mean tumor weight (est.), dose: 8.75 mg/kg/injection, schedule: Q01DX011 (ip), vehicle: other, higher = larger tumour): 69 % of control
T/C (endpoint: mean tumor weight (est.), dose: 17.5 mg/kg/injection, schedule: Q01DX011 (ip), vehicle: other, higher = larger tumour): 70 % of control
T/C (endpoint: mean tumor weight (est.), dose: 35.0 mg/kg/injection, schedule: Q01DX011 (ip), vehicle: other, higher = larger tumour): 93 % of control
T/C (endpoint: mean tumor weight (est.), dose: 70.0 mg/kg/injection, schedule: Q01DX011 (ip), vehicle: other, higher = larger tumour): 83 % of control
T/C (endpoint: median survival time, dose: 8.75 mg/kg/injection, schedule: Q01DX011 (ip), vehicle: other, higher = longer survival): 92 % of control
T/C (endpoint: median survival time, dose: 17.5 mg/kg/injection, schedule: Q01DX011 (ip), vehicle: other, higher = longer survival): 106 % of control
T/C (endpoint: median survival time, dose: 35.0 mg/kg/injection, schedule: Q01DX011 (ip), vehicle: other, higher = longer survival): 106 % of control
T/C (endpoint: median survival time, dose: 70.0 mg/kg/injection, schedule: Q01DX011 (ip), vehicle: other, higher = longer survival): 94 % of control
